Results from patent US20200383985A1, “Inhibitors of Protease Activated Receptor-2” (Endosome Therapeutics, Inc., priority 2017, published 2020).

How the values were obtained:
PKC and ERK activity = assay: FRET assays of compartmentalized PKC and ERK in DRG neurons; type: cell-based, rat; conditions: I-343 10 μM, SCH530348 100 nM
Experimental: To determine whether trypsin causes PAR2-dependent activation of PKC and ERK, which respectively mediate initial and persistent trypsin-induced hyperexcitability of nociceptors, genetically-encoded Förster Resonance Energy Transfer (FRET) biosensors were expressed in neurons. […] Trypsin (10 or 100 nM) activated PKC at the plasma membrane but not in the cytosol (FIG. 4E-G), and activated ERK in the cytosol and nucleus (FIG. 4H-J). The PAR2 antagonist I-343 (10 μM) inhibited trypsin-induced activation of PKC and ERK, whereas the PAR1 antagonist SCH530348 (100 nM) had no effect (FIG. 4F, I). At the end of experiments, neurons were challenged with the positive controls phorbol 12,13-dibutyrate (PDBu) for EKAR biosensors or PDBu plus phosphatase inhibitor mixture-2 for CKAR biosensors, to ensure that the response of the biosensor was not saturated.
DRG were collected from C57BL/6 mice and Sprague-Dawley rats (all levels). DRG were incubated with collagenase IV (2 mg/ml) and dispase II (1 mg/ml) for 30 min (mice) and 45 min (rats) at 37° C. DRG were dispersed by trituration with a fire-polished Pasteur pipette. Dissociated neurons were transfected with mPAR2-GFP (1 μg), the FRET biosensors CytoEKAR, NucEKAR, pmCKAR or CytoCKAR (all […]), or with the BRET biosensors PAR2-RLuc8 (125 ng) and βARR2-FYP (475 ng) using the Lonza 4D-Nucleofector X unit according to the manufacturer's instructions. Neurons were plated on laminin- (0.004 mg/ml) and poly-L-Lysine- (0.1 mg/ml) coated glass coverslips for confocal microscopy, on ViewPlate-96 plates (PerkinElmer) for FRET assays, or on CulturPlates (PerkinElmer) for BRET assays. Neurons were maintained in Dulbecco's modified Eagle medium (DMEM) containing 10% fetal bovine serum (FBS), antibiotic-antimitotic, and N1 supplement for 48 h before study.
Rat DRG neurons expressing FRET biosensors were serum-restricted (0.5% FBS overnight), and equilibrated in HBSS-HEPES (10 mM HEPES, pH 7.4, 30 min, 37° C.). FRET was analyzed using an Operetta CLS High-Content Imaging System (PerkinElmer) or an INCell Analyzer 2000 G E Healthcare Life Sciences). For CFP/YFP emission ratio analysis, cells were sequentially excited using a CFP filter (410-430 nm) with emission measured using YFP (520-560 nm) and CFP (460-500 nm) filters. Cells were imaged at 1 or 2 min intervals. Baseline was measured, neurons were challenged with trypsin (10 or 100 nM) or vehicle, and responses recorded for a further 30 min. Neurons were then challenged with phorbol 12,13-dibutyrate (PDBu, 200 nM, 10 min) for EKAR biosensors or PDBu (200 nM) and phosphatase inhibitor cocktail-2 (SigmaAldrich, 10 min) for CKAR biosensors. Data were analyzed using Harmony 4.1 or Image J 1.51 software. Images taken were aligned, cells were selected based on diameter, and fluorescence intensity was calculated for both FRET and CFP channels. Background intensity was subtracted and the FRET ratio was determined as the change in the FRET/donor (EKAR) or donor/FRET (CKAR) emission ratio relative to the baseline for each cell (F/Fo). Cells with >5% changes in F/F0 after PDBu stimulation were selected for analysis. Neurons were incubated with I-343 (10 μM), SCH530348 (100 nM) or vehicle (30 min, 37° C. preincubation and inclusion throughout).

PKC and cAMP = assay: FRET assays of PKC and cAMP in HEK293 cells; type: cell-based; conditions: HEK293 cells
Experimental: I-343, but not SCH530348, inhibited trypsin stimulation of PKC and cAMP, which thus depend on PAR2 (FIGS. 19G and H). […] The sustained plasma membrane cAMP response to trypsin support the existence of mechanisms that allow persistent PAR2 signaling, which warrant further investigation.
HEK293 cells were cultured in DMEM supplemented with 10% (v/v) FBS (5% CO2, 37° C.). When necessary serum restriction was achieved by replacing culture medium with DMEM containing 0.5% FBS overnight. Cells were transiently transfected using polyethylenimine (PEI) (1:6 DNA:PEI).
HEK293 cells were transiently transfected in 10 cm dishes (˜50% confluency) with Flag-PAR2-HA (2.5 μg) and FRET biosensors CytoEKAR or NucEKAR (2.5 μg) (Jensen, D. D. et al., Sci Transl Med. 2017, 9(392), eaal3447; Thomsen, A. R. B., et al., Cell 2016, 166(4): 907-919). In experiments examining the role of dynamin, cells were transfected with FLAG-PAR2-HA (1.25 μg), FRET biosensor (1.25 μg) and either DynWT-HA, DynK44E-HA or pcDNA3.1 (2.5 μg). At 24 h after transfection, cells were seeded on ViewPlate-96 well plates (PerkinElmer). FRET was assessed 72 h post-transfection, following overnight serum restriction. Cells were equilibrated in HBSS-HEPES (30 min, 37° C.). FRET was measured using a PHERAstar FSX Microplate Reader (BMG LabTech). For CFP/YFP emission ratio analysis, cells were sequentially excited using a CFP filter (425/10 nm) with emission measured using YFP (550/50 nm) and CFP (490/20 nm) filters. FRET was measured before and after stimulation with trypsin (10 nM), NE (100 nM), CS (100 nM), phorbol 12,13-dibutyrate, PDBu (positive control, 1 μM), or vehicle. FRET ratios (donor/acceptor intensity for EKAR, or acceptor/donor intensity for CKAR and Epac) were calculated and corrected to baseline and vehicle treatments to determine ligand-induced FRET (ΔFRET). Treatment effects were determined by comparison of area under the curve values. Signalling inhibitors were dissolved in HBSS-HEPES. PS2 and PS2 inact were dissolved in HBSS-HEPES+1% DMSO. […]

## CCOC(=O)N[C@@H]1CC[C@@H]2[C@@H](C1)C[C@H]1C(=O)O[C@H](C)[C@H]1[C@H]2/C=C/c1ccc(-c2cccc(F)c2)cn1 [SCH530348]
PKC and ERK activity
  trypsin-induced activation of PKC and ERK: no effect
PKC and cAMP
  trypsin stimulation of PKC and cAMP: not
